Experimental data: PubChem BioAssay AID342 (DTP/NCI, 2004)
Several values for one entry are separate records, joined by “and”; a condition that tells them apart may be missing. Identical values can stand only once. Numbered stars: 1 amine (or outer) side, 2 acyl side, 3 side chain; on linkers, the order of the positions; unused ones are H or OH. Bridge positions count the residues as written; N and C are the ends. Square brackets hold non-standard residues; d marks the D form. Peptide text beside a SMILES is read from it. I, II: the chains in the order shown. Actinocin(9to1) = Cc1c2oc3c(C)ccc(C(=O)[*:1])c3nc-2c(C(=O)[*:2])c(N)c1=O; aThr = C[C@H](O)[C@H](N)C(=O)O; NMeV = CN[C@H](C(=O)O)C(C)C; Sar = CNCC(=O)O

Test system: Swiss mice, Sarcoma 180 sc, mean tumor weight T/C
Experiment: NCI In Vivo Anticancer Drug Screen. Data for tumor model Sarcoma 180 (subcutaneous) in Swiss mice
Conditions: endpoint: mean tumor weight, higher = larger tumour
Summary of the method: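 Tumor-bearing mice, transplantable tumor; readout survival or tumor size; result = T/C, treated vs vehicle control.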

[1] = dose: 50.0 mg/kg/injection, schedule: Q01DX007 (ip), vehicle: carboxymethylcellulose (CMC)

In the case of `Cc1c2oc3c(C)ccc(C(=O)N[C@@H]4C(=O)N[C@H](C(C)C)C(=O)N5CCC[C@H]5C(=O)N(C)CC(=O)N(C)[C@@H](C(C)C)C(=O)O[C@H]4C)c3nc-2c(C(=O)N[C@@H]2C(=O)N[C@H](C(C)C)C(=O)N3CCC[C@H]3C(=O)N(C)CC(=O)N(C)[C@@H](C(C)C)C(=O)O[C@H]2C)c(N)c1=O` (I: [aThr][dV]P[Sar][NMeV] / II: [aThr][dV]P[Sar][NMeV]; ester I:1-I:C, II:1-II:C; linker I:N-II:N via Actinocin(9to1)), the T/C (dose: 4.0 mg/kg/injection, schedule: Q#A X014 (ip), vehicle: carboxymethylcellulose (CMC)) is reported as 105 % of control, the T/C (dose: 7.5 mg/kg/injection, schedule: Q#A X014 (ip), vehicle: carboxymethylcellulose (CMC)) is reported as 71 % of control and the T/C (dose: 12.0 mg/kg/injection, schedule: Q#A X014 (ip), vehicle: carboxymethylcellulose (CMC)) is reported as 70 % of control. For the same molecule, the T/C (dose: 15.0 mg/kg/injection, schedule: Q#A X014 (ip), vehicle: carboxymethylcellulose (CMC)) was 47 % of control and 71 % of control, the T/C (dose: 20.0 mg/kg/injection, schedule: Q#A X014 (ip), vehicle: carboxymethylcellulose (CMC)) was 51 % of control and the T/C (dose: 30.0 mg/kg/injection, schedule: Q#A X014 (ip), vehicle: carboxymethylcellulose (CMC)) was 13 % of control and 24 % of control.

For `CN=C(N)c1ccc(N=C(N)c2ccc(C(N)=Nc3ccc(C(N)=NC)cc3)cc2)cc1`, the T/C (dose: 12.5 mg/kg/injection, schedule: Q01DX007 (ip), vehicle: carboxymethylcellulose (CMC)) was 124 % of control, the T/C (dose: 25.0 mg/kg/injection, schedule: Q01DX007 (ip), vehicle: carboxymethylcellulose (CMC)) was 86 % of control and the T/C [1] was 80 % of control.

With `CC1OC(OC2C(CO)OC(O[C@H]3CC[C@@]4(C)C(=CC[C@H]5[C@@H]6C[C@@H]7O[C@@]8(CC[C@H](C)CN8)[C@@H](C)[C@@H]7[C@@]6(C)CC[C@@H]54)C3)C(OC3OC(C)C(O)C(O)C3O)C2O)C(O)C(O)C1O` (stereo partly specified) the T/C (dose: 5.0 mg/kg/injection, schedule: Q01DX007 (ip), vehicle: saline) was 51 % of control, the T/C (dose: 15.0 mg/kg/injection, schedule: Q01DX007 (ip), vehicle: saline) was 62 % of control and the T/C (dose: 20.0 mg/kg/injection, schedule: Q01DX007 (ip), vehicle: saline) was 15 % of control. The T/C (dose: 30.0 mg/kg/injection, schedule: Q01DX007 (ip), vehicle: saline) was 21 % of control and the T/C (dose: 40.0 mg/kg/injection, schedule: Q01DX007 (ip), vehicle: saline) was 16 % of control.

With `Nc1nc(Cc2ccccc2)cc(=O)[nH]1` the T/C (dose: 62.5 mg/kg/injection, schedule: Q01DX007 (ip), vehicle: water) was 88 % of control, the T/C (dose: 125.0 mg/kg/injection, schedule: Q01DX007 (ip), vehicle: water) was 78 % of control and the T/C (dose: 250.0 mg/kg/injection, schedule: Q01DX007 (ip), vehicle: water) was 67 % of control.

With `Cc1cc2nc(Cc3nc4cc(C)c(C)cc4[nH]3)[nH]c2cc1C` the T/C (dose: 20.0 mg/kg/injection, schedule: Q01DX007 (ip), vehicle: carboxymethylcellulose (CMC)) was 86 % of control, the T/C (dose: 40.0 mg/kg/injection, schedule: Q01DX007 (ip), vehicle: carboxymethylcellulose (CMC)) was 85 % of control and the T/C (dose: 60.0 mg/kg/injection, schedule: Q01DX007 (ip), vehicle: carboxymethylcellulose (CMC)) was 80 % of control and 81 % of control. The T/C (dose: 80.0 mg/kg/injection, schedule: Q01DX007 (ip), vehicle: carboxymethylcellulose (CMC)) was 102 % of control, the T/C (dose: 90.0 mg/kg/injection, schedule: Q01DX007 (ip), vehicle: carboxymethylcellulose (CMC)) was 67 % of control and the T/C (dose: 120.0 mg/kg/injection, schedule: Q01DX007 (ip), vehicle: carboxymethylcellulose (CMC)) was 122 % of control. The T/C (dose: 160.0 mg/kg/injection, schedule: Q01DX007 (ip), vehicle: carboxymethylcellulose (CMC)) was 77 % of control, the T/C (dose: 180.0 mg/kg/injection, schedule: Q01DX007 (ip), vehicle: carboxymethylcellulose (CMC)) was 89 % of control and the T/C (dose: 210.0 mg/kg/injection, schedule: Q01DX007 (ip), vehicle: carboxymethylcellulose (CMC)) was 61 % of control. For the same molecule, the T/C (dose: 270.0 mg/kg/injection, schedule: Q01DX007 (ip), vehicle: carboxymethylcellulose (CMC)) was 77 % of control, the T/C (dose: 320.0 mg/kg/injection, schedule: Q01DX007 (ip), vehicle: carboxymethylcellulose (CMC)) was 90 % of control and 100 % of control and the T/C (dose: 478.0 mg/kg/injection, schedule: Q01DX007 (ip), vehicle: carboxymethylcellulose (CMC)) was 57 % of control. The T/C (dose: 717.0 mg/kg/injection, schedule: Q01DX007 (ip), vehicle: carboxymethylcellulose (CMC)) was 65 % of control.

For `CC(=O)OCC(=O)[C@@]1(O)CC[C@H]2[C@@H]3C[C@H](C)C4=CC(=O)CC[C@]4(C)[C@H]3[C@@H](O)C[C@@]21C`, the T/C (dose: 3.0 mg/kg/injection, schedule: Q#A X014 (sc), vehicle: steriod suspending solution) was 64 % of control, the T/C (dose: 6.25 mg/kg/injection, schedule: Q#A X014 (sc), vehicle: steriod suspending solution) was 77 % of control and the T/C (dose: 12.5 mg/kg/injection, schedule: Q01DX007 (sc), vehicle: steriod suspending solution) was 44 % of control. The T/C (dose: 12.5 mg/kg/injection, schedule: Q#A X014 (sc), vehicle: steriod suspending solution) was 48 % of control, the T/C (dose: 25.0 mg/kg/injection, schedule: Q01DX007 (sc), vehicle: steriod suspending solution) was 37 % of control and the T/C (dose: 25.0 mg/kg/injection, schedule: Q#A X014 (sc), vehicle: steriod suspending solution) was 43 % of control. The T/C (dose: 50.0 mg/kg/injection, schedule: Q01DX007 (sc), vehicle: steriod suspending solution) was 32 % of control, the T/C (dose: 50.0 mg/kg/injection, schedule: Q#A X014 (sc), vehicle: steriod suspending solution) was 28 % of control and the T/C (dose: 100.0 mg/kg/injection, schedule: Q01DX007 (sc), vehicle: steriod suspending solution) was 25 % of control. The T/C (dose: 200.0 mg/kg/injection, schedule: Q01DX007 (sc), vehicle: steriod suspending solution) was 15 % of control.

`NC1(C(=O)OCc2ccccc2)CCCC1` was tested, and the T/C [1] was 87 % of control, the T/C (dose: 100.0 mg/kg/injection, schedule: Q01DX007 (ip), vehicle: carboxymethylcellulose (CMC)) was 76 % of control and the T/C (dose: 200.0 mg/kg/injection, schedule: Q01DX007 (ip), vehicle: carboxymethylcellulose (CMC)) was 66 % of control. For the same molecule, the T/C (dose: 333.0 mg/kg/injection, schedule: Q01DX007 (ip), vehicle: carboxymethylcellulose (CMC)) was 64 % of control, the T/C (dose: 400.0 mg/kg/injection, schedule: Q01DX007 (ip), vehicle: carboxymethylcellulose (CMC)) was 47 % of control and the T/C (dose: 500.0 mg/kg/injection, schedule: Q01DX007 (ip), vehicle: carboxymethylcellulose (CMC)) was 36 % of control. The T/C (dose: 750.0 mg/kg/injection, schedule: Q01DX007 (ip), vehicle: carboxymethylcellulose (CMC)) was 55 % of control and the T/C (dose: 800.0 mg/kg/injection, schedule: Q01DX007 (ip), vehicle: carboxymethylcellulose (CMC)) was 25 % of control.

In the case of `COc1ccccc1NC(=O)CSC(N)=O`, the T/C (dose: 110.0 mg/kg/injection, schedule: Q01DX007 (ip), vehicle: carboxymethylcellulose (CMC)) is reported as 78 % of control, the T/C (dose: 165.0 mg/kg/injection, schedule: Q01DX007 (ip), vehicle: carboxymethylcellulose (CMC)) is reported as 74 % of control and the T/C (dose: 250.0 mg/kg/injection, schedule: Q01DX007 (ip), vehicle: carboxymethylcellulose (CMC)) is reported as 61 % of control. The T/C (dose: 375.0 mg/kg/injection, schedule: Q01DX007 (ip), vehicle: carboxymethylcellulose (CMC)) was 28 % of control.

`Fc1ccc(NC(=S)Nc2cc(Cl)cc(Cl)c2)cc1` was tested, and the T/C (dose: 15.0 mg/kg/injection, schedule: Q01DX007 (ip), vehicle: carboxymethylcellulose (CMC)) was 115 % of control and the T/C (dose: 30.0 mg/kg/injection, schedule: Q01DX007 (ip), vehicle: carboxymethylcellulose (CMC)) was 117 % of control.

In the case of `CC#CC(C)(O)CC` (stereo unspecified), the T/C (dose: 77.0 mg/kg/injection, schedule: Q#A X014 (ip), vehicle: methylcellulose (MC)) is reported as 79 % of control, the T/C (dose: 115.5 mg/kg/injection, schedule: Q#A X014 (ip), vehicle: methylcellulose (MC)) is reported as 75 % of control and the T/C (dose: 175.0 mg/kg/injection, schedule: Q#A X014 (ip), vehicle: methylcellulose (MC)) is reported as 51 % of control. The T/C (dose: 212.5 mg/kg/injection, schedule: Q#A X014 (ip), vehicle: methylcellulose (MC)) was 44 % of control.

With `CCCCN(C)/N=N/c1nc[nH]c1C(N)=O` the T/C (dose: 31.0 mg/kg/injection, schedule: Q01DX007 (ip), vehicle: carboxymethylcellulose (CMC)) was 44 % of control, the T/C (dose: 62.0 mg/kg/injection, schedule: Q01DX007 (ip), vehicle: carboxymethylcellulose (CMC)) was 31 % of control and the T/C (dose: 125.0 mg/kg/injection, schedule: Q01DX007 (ip), vehicle: carboxymethylcellulose (CMC)) was 14 % of control.
